Laboratory results published in patent US8173131B2, “Compositions and methods for modulating RSV infection and immunity” (PerkinElmer Health Sciences, Inc., priority 2000, dated 2012).

B1: G glycoprotein: purified G glycoprotein isolated from RSV/A2-infected Vero cells (protein)
chain: MSKNKDQRTAKTLERTWDTLNHLLFISSCLYKLNLKSVAQITLSILAMIISTSLIIAAIIFIASANHKVTPTTAIIQDATSQIKNTTPTYLTQNPQLGISPSNPSEITSQITTILASTTPGVKSTLQSTTVKTKNTTTTQTQPSKPTTKQRQNKPPSKPNNDFHFEVFNFVPCSICSNNPTCWAICKRIPNKKPGKKTTTKPTKKPTLKTTKKDPKPQTTKSKEVPTTKPTEEPTINTTKTNIITTLLTSNTTGNPELTSQMETFHSTSSEGNPSPSQVSTTSEYPSQPSSPPNTPRQ

Tests used:
293 cells = assay: G glycoprotein and Fkn binding to untransfected 293 control cells by flow cytometry; design: species or system human; settings: for percent positive staining of 293 cells: 10 nM ligand, representative experiment, FIG. 1
Protocol: Purified G glycoprotein was examined for binding to 293-CX3CR1 cells^33. A pcDNA 3.1 plasmid containing the CX3CR1 gene and a neomycin resistance gene was used to stably transfect human embryonic kidney (HEK) cells. Neomycin resistance was used for selection and maintenance of plasmid transfection of human embryonic kidney cells.
All binding studies were done on ice and either G glycoprotein or human Fkn (R&D Diagnostics, Minneapolis, Minn.) were diluted between 1 nM-100 nM in PBS (GIBCO) containing 1% bovine serum albumin (Sigma) and incubated with the 293-CX3CR1 cells or 293 control cells for 30 min at 4° C. […] For inhibition studies, 100 pM-1 μM human Fkn or G glycoprotein was preincubated with the cells for 30 min at 4° C. Without washing, 100 pM of either Fkn or G glycoprotein was added and incubated for 30 min at 4° C. The cells were washed, blocked with FcγRIII blocking antibody (HB197) for 30 min on ice, washed and stained as appropriate with either an anti-G glycoprotein monoclonal antibody cocktail (132-5B, 132-5G, 130-2G, 232-IF) or a biotinylated anti-G glycoprotein monoclonal antibody cocktail (130-2G, 131-2G) or anti-Fkn monoclonal antibody (51637.11; R&D Diagnostics). Concentrations of 1 μg of anti-G glycoprotein monoclonal antibody (131-2G)^34, rabbit anti-CX3CR1 sera^33, and anti-CX3CR1 monoclonal antibody containing 10 μg/ml heparin were used in all experiments. […] Staining was detected with absorbed FITC-goat anti-mouse (H & L chain) monoclonal antibody (PharMingen, San Diego, Calif.) or streptavidin-PE (PharMingen) using flow cytometry (FACScan, Becton-Dickinson, Mountain View, Calif.). A 76 amino acid ^125I-Fkn polypeptide comprising the […] (NEN, Boston, Mass.) was used in radioligand studies^33. As a control, the void volume following purified G glycoprotein passaged over an anti-G glycoprotein antibody (130-2G) affinity column was examined by flow cytometry for binding to either 293 or 293-CX3CR1 cells.
The receptor for Fkn, CX3CR1, was previously identified and characterized using anti-CX3CR1 rabbit antiserum and CX3CR1-transfected human embryonic kidney cells (293-CX3CR1 cells)^33.

[1] = tested on: human peripheral blood mononuclear cells; assay: Human PBMC chemotaxis and CX3CR1 expression in modified Boyden chamber; assay type: cell-based; settings: for Chemotactic Indices / CX3CR1 Expression (%) Lower / CX3CR1 Expression (%) Upper: 6 h
Protocol: Leukocyte chemotaxis toward Fkn, G glycoprotein or media was measured according to Boyden^46 using 24 well plates (Costar, Cambridge, Mass.) with 3 μm filter inserts (Nalge Nunc, Rochester, N.Y.) coated with an extracellular matrix consisting primarily of laminin, collagen IV and proteoglycan (ECM, Sigma, St. Louis, Mo.). For murine studies, 5×10^5 naïve spleen cells was placed in the upper chamber and 10 nM mouse Fkn or 10 nM G glycoprotein, anti-CX3CR1 antibody, anti-G or anti-F glycoprotein monoclonal antibody, normal rabbit sera, rabbit anti-CCR5 sera or media was placed in the upper or lower chamber as appropriate. For human studies, 10^6 density gradient purified (Lymphocyte Separation Media, ICN Biomedicals, Aurora, Ohio, per manufacture instructions) peripheral blood mononuclear cells (PBMC) from normal human adult donors was placed in the upper chamber in the presence or absence of 1 μM peptide RT33, and 10 nM human Fkn, 10 nM G glycoprotein or 1 μM peptide RT33 placed in the lower chambers. The modified Boyden chamber was incubated at 37° C. for 4-6 h, the inserts removed, washed in PBS (GIBCO BRL), fixed in 3% gluteraldehyde and stained in formalin-buffered 0.01% crystal violet. Chemotactic cells were visualized with a microscope. Chemotactic cells were analyzed for CX3CR1 expression by collecting cells from the upper or lower modified Boyden chambers, antibody staining (2A9-1) and flow cytometry as described. Leucocytes chemotactic toward G or Fkn expressed a higher percent of CX3CR1 in the lower (25-30%) versus upper chamber (7-11%).
Leukocyte chemotaxis and percent positive CX3CR1 expression on human PBMC after a 6 h chemotaxis assay were determined. The percentage of cells positive for CX3CR1 in both upper and lower modified Boyden chambers are shown. Chemotactic indices were determined from the fold increase of leukocyte migration toward the chemoattractant, i.e. Fkn, G glycoprotein or peptide RT33, over the leukocyte migration toward media alone. TCM=tissue culture media.

[2] = tested on: bronchoalveolar leukocytes (BAL); assay: BAL cell infiltration and cell types in RSV-infected mice following in vivo peptide treatment; design: species or system BALB/c mice; settings: in words; for total BAL numbers compared to mice treated with RT34, Δ−1 or PBS: day 3 pi; for course of BAL numbers: from day 3 to day 14 pi
Source text: Total pulmonary leukocyte trafficking following treatment of mice with peptides containing a CX3C motif (RT33 and EYp1) (A) or peptides without a CX3C motif (RT34, Δ+1, Δ−1)(B).
(§1) Flow cytometry results following treatment (d−1) of mice with PBS, RT33, RT34, Δ+1, Δ−1 and EYp1 peptides (100 μm). BAL cells were stained with antibodies against B220^+ (A, D, G), CD3^+ (B, E, H) and CD11b^+ (C, F, I) cells. Data is expressed as the total BAL cells/lung±SEM at days 3, 5, 7 and 14 post-infection. A representative experiment from 3 independent experiments is shown.
as §1, with “NK (DX5^+)” for “B220^+”, “(A, C, E) and PMN (RB6-8C5^+) cells (B,” for “(A,”, “F).” for “G), CD3^+ (B, E, H) and CD11b^+ (C, F, I) cells.”
On day −1, prior to RSV infection, mice were i.p. treated (0.1 ml/mouse) with 100 μM of G glycoprotein peptides RT33 (CWAIC) (SEQ ID NO: 12), RT34 (lacks the CX3C motif) or peptides with changes in the CX3C motif (Δ+1, Δ−1, EYp1). Control mice were treated with PBS containing a similar dilution of DMSO used to solubilize the peptides.
Mice were anesthetized with Avertin and exsanguinated by severing the right caudal artery. Bronchoalveolar leukocyte (BAL) cells were harvested by lung lavage with PBS containing 1% bovine serum albumin (BSA, Sigma). The procedure used for extracellular staining of BAL cells was modified for microculture staining as described (55,57). Briefly, BAL cells were washed in Dulbecco's PBS (GIBCO) containing 1% bovine serum albumin (Sigma), blocked with 10% normal mouse sera diluted in PBS containing 1% bovine serum albumin, and then stained (4° C., 30 min) with an appropriate dilution of FITC-conjugated or PE-conjugated anti-CD3ε (145-2C11), anti-CD45R/B220 (RA3-6B2), anti-CD8 (Ly-2), anti-neutrophil (PMN) (RB6-8C5), anti-CD11b (M1/70) and isotype antibody controls (all from Pharmingen, San Diego, Calif.).

[3] = TCM in upper chamber, substance in lower chamber (10 nM G or Fkn, 1 μM RT33)
[4] = TCM in upper chamber, substance in lower chamber
[5] = 1 μM RT33 in upper chamber, Fkn in lower chamber
[6] = 1 μM RT33 in upper chamber, G glycoprotein in lower chamber

Molecule | percent positive staining of 293 cells (293 cells) [%] | Chemotactic Indices [1, 3] | CX3CR1 Expression (%) Lower [1, 4] | CX3CR1 Expression (%) Upper [1, 4] | total BAL numbers compared to mice treated with RT34, Δ−1 or PBS [2] | course of BAL numbers [2] | CX3CR1 Expression (%) Lower [1, 5] | CX3CR1 Expression (%) Upper [1, 5] | Chemotactic Indices [1, 5] | CX3CR1 Expression (%) Lower [1, 6] | CX3CR1 Expression (%) Upper [1, 6] | Chemotactic Indices [1, 6] | effect on chemotaxis toward G glycoprotein and Fkn ([1]; peptide added to upper Boyden chamber, in words) | numbers of BAL cell types (B220+, CD3+, CD11b+, NK, PMN) ([2]; days 3, 5, 7 and 14 pi) | binding to 293 cells (293 cells; wheat germ lectin column fraction (G, F glycoprotein) or purified recombinant polyhistidine-tagged G glycoprotein) [%]
Fkn: CX3C chemokine fractalkine (R&D), ligand of CX3CR1 [reference compound] | 8 | 3.2-3.7 | 26-30% | 7-8% |  |  |  |  |  |  |  |  |  |  | 
TCWAIACKRIPNK [Δ + 1] |  |  |  |  | reduced BAL infiltrate | increased |  |  |  |  |  |  |  |  | 
TCWAICKRIPNK [RT33] |  | 1.6-2.2 | 16-18% | 11-16% | reduced BAL numbers | declined | 6-14% | 16-21% | 1.8-2.2 | 9-14% | 16-18% | 1.5-2.0 | reduced chemotaxis toward both G glycoprotein and Fkn | reduced numbers of BAL cell types | 
B1 | 16 | 3.0-3.6 | 25-30% | 8-11% |  |  |  |  |  |  |  |  |  |  | 18
